According to patent publication US20090136514A1, “Tetracyclines for Treating Ocular Diseases and Disorders” (priority 2005, published 2009):

Key:
[1] = test system: VEGF-mediated retinal vascular damage; assay: VEGF-induced retinal vascular leakage in rabbits, fundus photography and fluorescein angiography; type: in vivo, Dutch Belted rabbits; set-up: Leakage, mean score / Hemorrhage/Microaneurism, mean score / Edema, mean score: scale not given here; conditions: for Edema, mean score / Hemorrhage/Microaneurism, mean score / Leakage, mean score / Edema, Difference (Doxy-Vehicle) / (Kenalog-Vehicle) / Hemorrhage/Microaneurism, Difference (Doxy-Vehicle) / (Kenalog-Vehicle) / Leakage, Difference (Doxy-Vehicle) / (Kenalog-Vehicle) / Edema, Difference (Kenalog-Doxy) / Hemorrhage/Microaneurism, Difference (Kenalog-Doxy) / Leakage, Difference (Kenalog-Doxy): 48 hours post-dosing; for Edema, mean score / Hemorrhage/Microaneurism, mean score / Leakage, mean score: 50 μl intravitreal before VEGF165; for Edema, Difference (Doxy-Vehicle) / (Kenalog-Vehicle) / Hemorrhage/Microaneurism, Difference (Doxy-Vehicle) / (Kenalog-Vehicle) / Leakage, Difference (Doxy-Vehicle) / (Kenalog-Vehicle): difference of mean scores to vehicle; for Edema, Difference (Kenalog-Doxy) / Hemorrhage/Microaneurism, Difference (Kenalog-Doxy) / Leakage, Difference (Kenalog-Doxy): difference of mean scores to Doxy
Description: Retinal vascular leakage was induced in rabbits by intravitreal injection of VEGF according to the procedures set forth in Edelman et al., Experimental Eye Research 80:249-258 (2005). The protective effect of doxycycline on VEGF-mediated retinal vascular damage was assessed. A total of 12 Dutch Belted rabbits (Covance) were anesthetized with isoflurane inhalation and topical 0.5% proparacaine hydrochloride and each eye studied (24 eyes total). Four animals received a 50 μl intravitreal injection of 0.025% bovine serum albumin (BSA) in sterile phosphate-buffered saline (PBS) (Dow Pharmaceutical Sciences) (vehicle, eight eyes total). Doxycycline was formulated from anhydrous doxycycline (Dow Pharmaceutical Sciences) and reconstituted as a saturated solution of doxycycline in 0.025% BSA in PBS assayed to be at a final doxycycline concentration of approximately 0.067 weight percent. Four animals received 50 μl of the doxycycline formulation in each eye (eight eyes total). Four animals received 50 μl of a 40 mg/mL solution of triamcinolone acetonide (Kenalog®, Bristol Myers-Squibb) in 0.025% BSA in PBS (positive control, eight eyes total). Each injection was followed by a 50 μl intravitreal injection of a 10 μg/mL solution of recombinant human VEGF165 (Vascular Endothelial Growth Factor 165 amino acid residue variant, R&D Systems) in 0.025% BSA in PBS. A 30-gauge ⅝-inch needle was used for the injections. VEGF was purchased from R&D Systems (Minneapolis, Minn.).
Prior to injections, eyes were prepared for injection with 1% tropicamide (2 drops), followed ten minutes later by phenylephrine hydrochloride 2.5% (2 drops). An ophthalmic Betadine solution was then used to moisten the eyes. […]. After five minutes, the Betadine was washed out of the eyes with sterile saline and proparacaine hydrochloride was delivered to each eye.
Animals were then anesthetized with an intravenous injection of a ketamine/xylazine cocktail (77 mg/mL ketamine, 23 mg/mL xylazine) at 0.1 mL/kg.
Vascular leakage, hemorrhage, and edema were assessed using fundus photography and fluorescein angiography (see Table 1). Rabbits were anesthetized with subcutaneous 100 mg/mL ketamine at 35 mg/kg and 100 mg/mL xylazine at 7 mg/kg, eyes were dilated with topical 1% tropicamide, and angiograms were obtained with a Topeon TRC-501X retinal camera coupled to a personal computer with IMAGEnet 2000 software (Topcon Medical Systems Inc., Paramus, N.J.). Intravenous sodium fluorescein injection (12 mg/kg) was performed 48 hours after intravitreal injection of VEGF. Late-phase angiography was performed 4-6 min after intravenous sodium fluorescein injection, […]

diabetic retinopathy [2] = assay: Oral doxycycline in patients suffering from diabetic retinopathy; type: in vivo, Humans; conditions: 50 mg orally twice a day for eight weeks
Description: (§1) Ten patients suffering from diabetic retinopathy are treated with oral doxycycline 50 mg orally twice a day for eight weeks. The patients are monitored for improvement of macular edema and vascular leakage by fluorescein angiography and scanning ocular fluorophotometry. Decreased vascular leakage in response to doxycycline administration is observed, which leads to a decrease in edema and improved visual acuity.

diabetic retinopathy [3] = assay: Topical doxycycline in patients suffering from diabetic retinopathy; type: in vivo, Humans; conditions: between 0.025% and 0.1% daily for one month
Description: as §1, with “topical doxycycline. Two patients each are administered” for “oral”, “at” for “50 mg orally twice”, “concentration selected to be between 0.025% and 0.1% daily” for “day”, “one month.” for “eight weeks.”, “acuity in most or all of the patients treated.” for “acuity.”

pre-IL-1β = pre-IL-1β cleavage by ELISA in human choroidal cultures; type: cell-based; conditions: 0.001% to 5.0% doxycycline
[4] = most or all of the patients treated

Row | Compound | Edema, mean score ([1]; Combined Eyes) | Hemorrhage/Microaneurism, mean score ([1]; Combined Eyes) | Leakage, mean score ([1]; Combined Eyes) | Edema, Difference (Doxy-Vehicle) / (Kenalog-Vehicle) ([1]; Combined Eyes) | Hemorrhage/Microaneurism, Difference (Doxy-Vehicle) / (Kenalog-Vehicle) ([1]; Combined Eyes) | Leakage, Difference (Doxy-Vehicle) / (Kenalog-Vehicle) ([1]; Combined Eyes) | Edema, mean score ([1]; Left Eye) | Hemorrhage/Microaneurism, mean score ([1]; Left Eye) | Leakage, mean score ([1]; Left Eye) | Edema, Difference (Doxy-Vehicle) / (Kenalog-Vehicle) ([1]; Left Eye) | Hemorrhage/Microaneurism, Difference (Doxy-Vehicle) / (Kenalog-Vehicle) ([1]; Left Eye) | Leakage, Difference (Doxy-Vehicle) / (Kenalog-Vehicle) ([1]; Left Eye) | Edema, mean score ([1]; Right Eye) | Hemorrhage/Microaneurism, mean score ([1]; Right Eye) | Leakage, mean score ([1]; Right Eye) | Edema, Difference (Doxy-Vehicle) / (Kenalog-Vehicle) ([1]; Right Eye) | Hemorrhage/Microaneurism, Difference (Doxy-Vehicle) / (Kenalog-Vehicle) ([1]; Right Eye) | Leakage, Difference (Doxy-Vehicle) / (Kenalog-Vehicle) ([1]; Right Eye) | Edema ([1]; combined eyes) | Hemorrhage/microaneurism ([1]; combined eyes) | also measured
1 | C[C@H]1c2cccc(O)c2C(O)=C2C(=O)[C@]3(O)C(O)=C(C(N)=O)C(=O)[C@@H](N(C)C)[C@@H]3[C@@H](O)[C@@H]21 [Doxy, doxycycline] | 2.00 | 1.63 | 2.06 | −0.69 | −0.94 | −0.75 | 3.25 | 2.25 | 3.13 | 0.50 | 0.00 | 0.38 | 1.75 | 2 | 1.75 | −0.25 | −0.25 | −0.50 | 2.0 units | 1.63 units | VEGF-mediated retinal vascular damage ([1]; as compared to the rabbits that received vehicle): reduced; Leakage ([1]; combined eyes): 2.06 units; Edema ([1]; left eye): 3.25 units; Hemorrhage/microaneurism ([1]; left eye): 2.25 units; Leakage ([1]; left eye): 3.13 units; Edema ([1]; right eye): 1.75 units; Hemorrhage/microaneurism ([1]; right eye): 2.0 units; Leakage ([1]; right eye): 1.75 units; Edema (diabetic retinopathy [2]): decrease; visual acuity (diabetic retinopathy [2]): improved; vascular leakage (diabetic retinopathy [2]; fluorescein angiography and scanning ocular fluorophotometry): Decreased; vascular leakage (diabetic retinopathy [3]): Decreased; Edema (diabetic retinopathy [3]; [4]): decrease; visual acuity (diabetic retinopathy [3]; [4]): improved; pre-IL-1β cleavage (pre-IL-1β): correlate directly with increasing doxycycline concentrations
2 | CC1(C)O[C@@H]2C[C@H]3[C@@H]4CCC5=CC(=O)C=C[C@]5(C)[C@@]4(F)[C@@H](O)C[C@]3(C)[C@]2(C(=O)CO)O1 [Kenalog, triamcinolone acetonide] | 1.13 | 1.00 | 0.25 | −1.56 | −1.56 | −2.56 | 1.25 | 1.13 | 0.50 | −1.50 | −1.13 | −2.25 | 1.13 | 0.75 | 0.25 | −0.88 | −1.50 | −2.00 | 1.13 units | 1.00 units | Edema, Difference (Kenalog-Doxy) ([1]; Combined Eyes): −0.88; Hemorrhage/Microaneurism, Difference (Kenalog-Doxy) ([1]; Combined Eyes): −0.63; Leakage, Difference (Kenalog-Doxy) ([1]; Combined Eyes): −1.81; Edema, Difference (Kenalog-Doxy) ([1]; Left Eye): −2.00; Hemorrhage/Microaneurism, Difference (Kenalog-Doxy) ([1]; Left Eye): −1.13; Leakage, Difference (Kenalog-Doxy) ([1]; Left Eye): −2.63; Edema, Difference (Kenalog-Doxy) ([1]; Right Eye): −0.63; Hemorrhage/Microaneurism, Difference (Kenalog-Doxy) ([1]; Right Eye): −1.25; Leakage, Difference (Kenalog-Doxy) ([1]; Right Eye): −1.50; Leakage ([1]; combined eyes): 0.25 units; Edema ([1]; left eye): 1.25 units; Hemorrhage/microaneurism ([1]; left eye): 1.13 units; Leakage ([1]; left eye): 0.50 units; Edema ([1]; right eye): 1.13 units; Hemorrhage/microaneurism ([1]; right eye): 0.75 units; Leakage ([1]; right eye): 0.25 units
